Assay results as given in the supplement of paper PMC11451515.

Test system: NOMO1
Assay: cell viability relative to DMSO control; higher = less cytotoxic
Conditions: 48 h
Method in brief: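 Before seeding, each leukemia line was adapted for at least four passages in each medium. NOMO1 or SEM cells (500 cells/well) and P12-Ichikawa cells (1000 cells/well) went into 1536-well plates at 5 μl, then received library compounds in DMSO by pin dosing across 11 threefold concentrations, 47 μM to 0.79 nM. Readout was CellTiter-Glo One luminescence after 48 h at 37°C, and viability is given as a per-plate percentage of DMSO wells, with cell-free wells as background.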

[1] = HPLM + 10% dialyzed FBS, 0.000781 µM
[2] = HPLM + 10% dialyzed FBS, 0.00234 µM
[3] = HPLM + 10% dialyzed FBS, 0.00702 µM
[4] = HPLM + 10% dialyzed FBS, 0.0211 µM
[5] = HPLM + 10% dialyzed FBS, 0.0632 µM
[6] = HPLM + 10% dialyzed FBS, 0.19 µM
[7] = HPLM + 10% dialyzed FBS, 0.569 µM
[8] = HPLM + 10% dialyzed FBS, 1.71 µM
[9] = HPLM + 10% dialyzed FBS, 5.12 µM
[10] = HPLM + 10% dialyzed FBS, 15.4 µM
[11] = HPLM + 10% dialyzed FBS, 46.1 µM
[12] = RPMI 5 mM glucose + 10% FBS, 0.000781 µM
[13] = RPMI 5 mM glucose + 10% FBS, 0.00234 µM
[14] = RPMI 5 mM glucose + 10% FBS, 0.00702 µM
[15] = RPMI 5 mM glucose + 10% FBS, 0.0211 µM
[16] = RPMI 5 mM glucose + 10% FBS, 0.0632 µM
[17] = RPMI 5 mM glucose + 10% FBS, 0.19 µM
[18] = RPMI 5 mM glucose + 10% FBS, 0.569 µM
[19] = RPMI 5 mM glucose + 10% FBS, 1.71 µM
[20] = RPMI 5 mM glucose + 10% FBS, 5.12 µM
[21] = RPMI 5 mM glucose + 10% FBS, 15.4 µM
[22] = RPMI 5 mM glucose + 10% FBS, 46.1 µM
[23] = RPMI 5 mM glucose + 10% dialyzed FBS, 0.000781 µM
[24] = RPMI 5 mM glucose + 10% dialyzed FBS, 0.00234 µM
[25] = RPMI 5 mM glucose + 10% dialyzed FBS, 0.00702 µM
[26] = RPMI 5 mM glucose + 10% dialyzed FBS, 0.0211 µM
[27] = RPMI 5 mM glucose + 10% dialyzed FBS, 0.0632 µM
[28] = RPMI 5 mM glucose + 10% dialyzed FBS, 0.19 µM
[29] = RPMI 5 mM glucose + 10% dialyzed FBS, 0.569 µM
[30] = RPMI 5 mM glucose + 10% dialyzed FBS, 1.71 µM
[31] = RPMI 5 mM glucose + 10% dialyzed FBS, 5.12 µM
[32] = RPMI 5 mM glucose + 10% dialyzed FBS, 15.4 µM
[33] = RPMI 5 mM glucose + 10% dialyzed FBS, 46.1 µM

SMILES	cell viability [1] [%]	cell viability [2] [%]	cell viability [3] [%]	cell viability [4] [%]	cell viability [5] [%]	cell viability [6] [%]	cell viability [7] [%]	cell viability [8] [%]	cell viability [9] [%]	cell viability [10] [%]	cell viability [11] [%]	cell viability [12] [%]	cell viability [13] [%]	cell viability [14] [%]	cell viability [15] [%]	cell viability [16] [%]	cell viability [17] [%]	cell viability [18] [%]	cell viability [19] [%]	cell viability [20] [%]	cell viability [21] [%]	cell viability [22] [%]	cell viability [23] [%]	cell viability [24] [%]	cell viability [25] [%]	cell viability [26] [%]	cell viability [27] [%]	cell viability [28] [%]	cell viability [29] [%]	cell viability [30] [%]	cell viability [31] [%]	cell viability [32] [%]	cell viability [33] [%]
O=C(NOCC(O)CO)c1cc(Br)c(F)c(F)c1Nc1ccc(I)cc1F (stereo not drawn)	65.8	77.1	72.1	79.8	59.2	50.5	30.1	32.6	29	33.9	20	69.1	90.6	67.6	73.3	66.5	50.5	28.1	33.7	27.5	28.8	27.8	81.3	84.3	59.2	58.1	49.8	40.9	27.5	30.3	26.7	31.2	24.6
C=CC(=O)Nc1cccc(Oc2nc(Nc3ccc(N4CCN(C)CC4)cc3)ncc2Cl)c1	93.3	110	119	125	131	112	106	97.2	88.3	84.9	135	–	–	–	–	–	–	–	–	–	–	–	–	–	–	–	–	–	–	–	–	–	–
Cc1nc(NC(=O)N2CCC[C@H]2C(N)=O)sc1-c1ccnc(C(C)(C)C(F)(F)F)c1	99.5	96.2	105	81.2	85.9	81.5	75.9	70.1	46.2	44.4	71.7	86.8	84.8	88	82.7	87.5	80.2	79.4	77.8	56.3	55.3	82.5	79.6	84.8	82.2	76.8	82.2	75.6	67.8	69.2	48.3	48.2	87.7
CCC1(C)CC(=O)NC1=O (stereo not drawn)	114	116	105	118	102	111	104	93.9	105	86.7	84.2	85.5	89.2	84.7	87.5	89.2	92.2	99.2	81.7	90.3	94.5	77.4	104	98.1	96.7	94.3	81.3	101	98.4	92.7	96.6	88.2	87.6
CC(C)C(C)/C=C/C(C)C1CCC2C3=CC=C4CC(O)CCC4(C)C3CCC21C (stereo not drawn)	104	101	115	111	104	99.8	112	106	111	110	94.8	86.5	97.2	90.6	88.4	96.7	88.6	89.9	92	85.1	83	82.7	99.1	88.7	92.4	89.8	99.7	104	94.6	97.7	86.4	81.6	90.4
CCc1cc(Nc2nccc(-c3c(-c4ccc(OC)c(C(=O)Nc5c(F)cccc5F)c4)nc4ccccn34)n2)c(OC)cc1N1CCC(N2CCN([S+](C)(=O)[O-])CC2)CC1	101	95.2	103	104	105	96.7	114	120	103	96	43.2	101	91.5	92.7	95.3	94.6	102	114	106	101	111	44.6	84.8	90.1	94.8	101	104	86	102	107	109	98.3	65.5
CC(N[C@H]1C[C@@H]1c1ccccc1)c1ccc2c(c1)OCCO2 (stereo partly drawn)	–	–	–	–	–	–	–	–	–	–	–	105	117	116	106	103	102	113	112	114	98.7	109	115	124	115	126	119	114	126	123	110	118	111
O=NN(CCCl)C(=O)NC1CCCCC1	91.4	114	110	94.8	105	107	113	110	111	97.4	109	99.2	95.4	113	95.2	102	108	115	56.6	100	110	102	102	102	93.5	105	111	97.7	113	93.6	99.2	109	99.7
COc1nccc(-c2c(-c3ccc(F)cc3)ncn2C2CCNCC2)n1	95.7	121	124	127	120	121	119	94.4	107	78.3	49.4	45.8	120	115	101	113	107	100	112	96.7	97.6	74	44.9	119	97.3	110	106	104	108	104	101	99.1	68
O=C(NCC[S+](=O)([O-])c1ccc(C(F)(F)F)cn1)c1ccc(Cl)cc1	127	117	119	117	119	120	132	117	105	122	106	122	144	116	134	135	127	123	118	130	128	110	–	–	–	–	–	–	–	–	–	–	–
CNC(=O)c1ccc(-c2cnc3ncc(Cc4ccc5ncccc5c4)n3n2)cc1F	113	127	120	103	132	116	131	133	125	117	135	–	–	–	–	–	–	–	–	–	–	–	116	124	138	131	126	136	129	136	130	137	145
COC1=C(N2CCNC(C)C2)C(=CC3=C1N(\C=C(C(O)=O)/C3=O)C4CC4)F (stereo not drawn)	89.4	82.7	103	115	105	123	103	117	95.2	92.8	77.2	100	87.7	88.6	99.5	96	96.8	96.6	104	20.3	111	103	97.6	86.9	98.2	94.3	100	110	94	99.3	74.2	99.1	95.8
CC1CCC(C(=O)N(c2cc(C#CC(C)(C)C)sc2C(=O)O)C2CCC(O)CC2)CC1 (stereo not drawn)	108	98.7	111	113	96	92.9	98.7	85	78.9	50.1	53.5	87.2	98.8	91.5	90.9	85	87.9	88.6	87.7	78.1	75.1	59.8	97.5	97.1	89.7	98.3	96.5	86.3	93.2	81.7	79.9	65.2	46.1
CC1(C)Cc2c(-c3ccccc3)c(-c3ccc(Cl)cc3)c(CC(=O)O)n2C1	115	106	130	131	111	120	128	106	108	99.5	90.6	102	123	118	124	119	115	112	101	99	111	96.8	110	114	105	115	117	113	114	106	105	91.8	89.2
CCc1cncnc1N1CCN(Cc2nc3cc(C(F)(F)F)ccc3[nH]2)CC1	105	114	114	98.5	108	97.7	97.6	94	107	92	64.2	95.4	87.8	99.5	93.1	90.8	93.4	90.1	90.1	81.3	79.9	74.7	95.8	82.6	93.8	100	95.3	85.5	88.8	97.4	88.6	75.8	70.3
NC1(Cc2ccc(Cl)cc2)CCN(c2ncnc3[nH]ccc23)CC1	97.7	93.7	89.9	106	92.9	105	116	81.9	82	45.6	29.4	106	102	88.3	101	97.4	90.5	85.5	90.6	74.5	32.6	16.3	102	92.8	94.7	90.2	102	84.9	87.8	80.9	67.3	33	17.7
